The target of the assay is T1, human chemokine receptor 2 isoform B (CCR2B) (Homo sapiens, UniProt P41597).
T1 construct: host or cells: CHO-K1 (CHOK1-CCR2B-A5)
T1 sequence (P41597 1-360 isoform P41597-2): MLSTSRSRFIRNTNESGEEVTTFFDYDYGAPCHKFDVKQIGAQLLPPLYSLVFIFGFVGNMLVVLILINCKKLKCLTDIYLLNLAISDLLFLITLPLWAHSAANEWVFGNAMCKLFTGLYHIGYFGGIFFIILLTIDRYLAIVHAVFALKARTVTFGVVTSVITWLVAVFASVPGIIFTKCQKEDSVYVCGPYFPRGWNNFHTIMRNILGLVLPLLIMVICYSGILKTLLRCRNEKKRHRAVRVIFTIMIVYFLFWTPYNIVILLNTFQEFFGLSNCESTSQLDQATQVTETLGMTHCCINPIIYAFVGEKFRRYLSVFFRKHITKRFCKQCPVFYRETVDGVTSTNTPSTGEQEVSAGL
As to the kind of experiment: Calcium mobilization assay (FLIPR, MCP-1 stimulated CHOK1-CCR2B-A5 cells). It is filed as cell-based. Particulars: 20 nM MCP-1, antagonist activity, read-out: IC50 (inhibitor concentration required for 50% inhibition of specific calcium increases). The method, then:
Calcium Mobilization Assay
CHOK1-CCR2B-A5 cells (from Euroscreen) stably overexpressing the human chemokine receptor 2 isoform B were cultured in Nutrient Hams F12 medium supplemented with 5% FBS, 100 U/ml penicillin, 100 μg/ml streptomycin, 400 μg/ml G418 and 5 μg/ml puromycin.
For the assay cells were grown overnight in 384-well black clear flat bottom polystyrene plates (Costar) at 37° C. at 5% CO2. After washing with DMEM, 20 mM Hepes, 2.5 mM probenecid, 0.1% BSA (DMEM assay buffer) cells were loaded with 4 μM Fluo-4 in the same DMEM assay buffer for 2 hours at 30° C. Excess dye was removed and cells were washed with DMEM assay buffer. 384-well compound plates were prepared with DMEM assay buffer/0.5% DMSO with or without various concentrations of test compounds. Usually compounds were tested for agonist and antagonist activity.
Test compounds were added to the assay plate and agonist activity was monitored as fluorescence for 80 seconds with a FLIPR (488 nm excitation; 510-570 nm emission; Molecular Devices). After 20-30 min. of incubation at 30° C., 20 nM MCP-1 (R&D; Roche) was added and fluorescence was monitored again for 80 seconds. Increases in intracellular calcium are reported as maximum fluorescence after agonist exposure minus basal fluorescence before exposure. Antagonist activity is indicated as inhibitor concentration required for 50% inhibition of specific calcium increases.
A general note: A change in cytosolic calcium serves as a functional read-out for many receptors and channels.
In the case of `O=C(c1ncc(-c2cccc(C(F)(F)F)c2)cc1Cl)N1CCC(N2CCCC2)CC1` [Example 14, [3-Chloro-5-(3-trifluoromethyl-phenyl)-pyridin-2-yl]-(4-pyrrolidin-1-yl-piperidin-1-yl)-methanone], the IC50 was 12 nM.

For `O=C(c1nc(Cl)c(-c2cccc(C(F)(F)F)c2)cc1Cl)N1CCC(N2CCCC2)CC1` [Example 21, [3,6-Dichloro-5-(3-trifluoromethyl-phenyl)-pyridin-2-yl]-(4-pyrrolidin-1-yl-piperidin-1-yl)-methanone], the IC50 was found to be 3.2 nM.

Turning to `Cc1cc(-c2cccc(C(F)(F)F)c2)c(=O)n(C)c1C(=O)N1CCC(N2CCCC2)CC1` [Example 63, 1,5-Dimethyl-6-(4-pyrrolidin-1-yl-piperidine-1-carbonyl)-3-(3-trifluoromethyl-phenyl)-1H-pyridin-2-one], the IC50 worked out at 32 nM.

Turning to `Cc1cc(-c2cccc(C(F)(F)F)c2)c(C(=O)NC2CCN(C(=O)OC(C)(C)C)CC2)nc1C(=O)N1CCC(N2CCCC2)CC1` [Example 57, 4-{[5-Methyl-6-(4-pyrrolidin-1-yl-piperidine-1-carbonyl)-3-(3-trifluoromethyl-phenyl)-pyridine-2-carbonyl]-amino}-piperidine-1-carboxylic acid tert-butyl ester], the IC50 amounted to 210 nM.

With `Cc1cc(-c2cccc(C(F)(F)F)c2)c(-c2cnc(N)nc2)nc1C(=O)N1CCC(N2CCCC2)CC1` [Example 39, [6-(2-Amino-pyrimidin-5-yl)-3-methyl-5-(3-trifluoromethyl-phenyl)-pyridin-2-yl]-(4-pyrrolidin-1-yl-piperidin-1-yl)-methanone], the IC50 is 5.8 nM.

On to `COc1ccc(-c2cnc(C(=O)N3CCC(N4CCCC4)CC3)c(C)c2)cc1C(F)(F)F` [Example 35, [5-(4-Methoxy-3-trifluoromethyl-phenyl)-3-methyl-pyridin-2-yl]-(4-pyrrolidin-1-yl-piperidin-1-yl)-methanone], for which the IC50 was determined as 560 nM.

On to `C#Cc1nc(C(=O)N2CCC(N3CCCC3)CC2)c(C)cc1-c1cccc(C(F)(F)F)c1` [Example 24, [6-Ethynyl-3-methyl-5-(3-trifluoromethyl-phenyl)-pyridin-2-yl]-(4-pyrrolidin-1-yl-piperidin-1-yl)-methanone], for which the IC50 came to 4.8 nM.

As for `Cc1cc(-c2cccc(C(F)(F)F)c2)c(C(N)=O)nc1C(=O)N1CCC(N2CCCC2)CC1` [Example 43, 5-Methyl-6-(4-pyrrolidin-1-yl-piperidine-1-carbonyl)-3-(3-trifluoromethyl-phenyl)-pyridine-2-carboxylic acid amide], the IC50 came out at 25 nM.

In the case of `Cc1cc(-c2cccc(C(F)(F)F)c2)c(C(=O)NC2CCNCC2)nc1C(=O)N1CCC(N2CCCC2)CC1` [Example 60, 5-Methyl-6-(4-pyrrolidin-1-yl-piperidine-1-carbonyl)-3-(3-trifluoromethyl-phenyl)-pyridine-2-carboxylic acid piperidin-4-ylamide], the IC50 was found to be 290 nM.

Take `CC(=O)Nc1nc(C(=O)N2CCC(N3CCCC3)CC2)c(C)cc1-c1cccc(C(F)(F)F)c1` [Example 11, N-[5-Methyl-6-(4-pyrrolidin-1-yl-piperidine-1-carbonyl)-3-(3-trifluoromethyl-phenyl)-pyridin-2-yl]-acetamide]: the IC50 worked out at 71 nM.

Take `Cc1cc(-c2cccc(C(F)(F)F)c2)c(NCCO)nc1C(=O)N1CCC(N2CCCC2)CC1` [Example 27, [6-(2-Hydroxy-ethylamino)-3-methyl-5-(3-trifluoromethyl-phenyl)-pyridin-2-yl]-(4-pyrrolidin-1-yl-piperidin-1-yl)-methanone]: the IC50 worked out at 41 nM.

As to `Cc1cc(-c2cccc(C(F)(F)F)c2)c(C(=O)Nc2cccnc2)nc1C(=O)N1CCC(N2CCCC2)CC1` [Example 56, 5-Methyl-6-(4-pyrrolidin-1-yl-piperidine-1-carbonyl)-3-(3-trifluoromethyl-phenyl)-pyridine-2-carboxylic acid pyridin-3-ylamide], the IC50 came out at 13 nM.

With `COc1ccc(CNc2nc(C(=O)N3CCC(N4CCCC4)CC3)c(C)cc2-c2cccc(C(F)(F)F)c2)cc1` [Example 6, [6-(4-Methoxy-benzylamino)-3-methyl-5-(3-trifluoromethyl-phenyl)-pyridin-2-yl]-(4-pyrrolidin-1-yl-piperidin-1-yl)-methanone], the IC50 is 130 nM.

In the case of `Cc1cc(-c2cccc(C(F)(F)F)c2)c(-c2cnc(O)nc2O)nc1C(=O)N1CCC(N2CCCC2)CC1` [Example 54, [6-(2,4-Dihydroxy-pyrimidin-5-yl)-3-methyl-5-(3-trifluoromethyl-phenyl)-pyridin-2-yl]-(4-pyrrolidin-1-yl-piperidin-1-yl)-methanone], the IC50 amounted to 120 nM.

Turning to `Cc1cc(-c2cccc(C(F)(F)F)c2)c(C(=O)O)nc1C(=O)N1CCC(N2CCCC2)CC1` [Example 47, 5-Methyl-6-(4-pyrrolidin-1-yl-piperidine-1-carbonyl)-3-(3-trifluoromethyl-phenyl)-pyridine-2-carboxylic acid], the IC50 stood at 310 nM.

With `O=C(c1nc(O)c(-c2cccc(C(F)(F)F)c2)cc1Cl)N1CCC(N2CCCC2)CC1` [Example 23, [3-Chloro-6-hydroxy-5-(3-trifluoromethyl-phenyl)-pyridin-2-yl]-(4-pyrrolidin-1-yl-piperidin-1-yl)-methanone; 5-Chloro-6-(4-pyrrolidin-1-yl-piperidine-1-carbonyl)-3-(3-trifluoromethyl-phenyl)-1H-pyridin-2-one (tautomers)], the IC50 is 41 nM.

Regarding `Cc1cc(-c2cccc(C(F)(F)F)c2)nc(N)c1C(=O)N1CCC(N2CCCC2)CC1` [Example 19, [2-Amino-4-methyl-6-(3-trifluoromethyl-phenyl)-pyridin-3-yl]-(4-pyrrolidin-1-yl-piperidin-1-yl)-methanone], the IC50 was 64 nM.

Take `COc1ccc(C(F)(F)F)cc1-c1cnc(C(=O)N2CCC(N3CCCC3)CC2)c(C)c1` [Example 33, [5-(2-Methoxy-5-trifluoromethyl-phenyl)-3-methyl-pyridin-2-yl]-(4-pyrrolidin-1-yl-piperidin-1-yl)-methanone]: the IC50 is 16 nM.

With `Cc1cc(-c2cccc(C(F)(F)F)c2)c(C#N)nc1C(=O)N1CCC(N2CCCC2)CC1` [Example 42, 5-Methyl-6-(4-pyrrolidin-1-yl-piperidine-1-carbonyl)-3-(3-trifluoromethyl-phenyl)-pyridine-2-carbonitrile], the IC50 was 26 nM.

For `O=C(c1ncc(-c2cccc(C(F)(F)F)c2)cc1-c1cccc(C(F)(F)F)c1)N1CCC(N2CCCC2)CC1` [Example 15, [3,5-Bis-(3-trifluoromethyl-phenyl)-pyridin-2-yl]-(4-pyrrolidin-1-yl-piperidin-1-yl)-methanone], the IC50 is 250 nM.

Turning to `Cc1cc(-c2cc(C(F)(F)F)ccc2F)cnc1C(=O)N1CCC(N2CCCC2)CC1` [Example 31, [5-(2-Fluoro-5-trifluoromethyl-phenyl)-3-methyl-pyridin-2-yl]-(4-pyrrolidin-1-yl-piperidin-1-yl)-methanone], the IC50 amounted to 25 nM.

Consider `COc1nc(C(=O)N2CCC(N3CCCC3)CC2)c(C)cc1-c1cccc(C(F)(F)F)c1` [Example 8, [6-Methoxy-3-methyl-5-(3-trifluoromethyl-phenyl)-pyridin-2-yl]-(4-pyrrolidin-1-yl-piperidin-1-yl)-methanone], for which the IC50 worked out at 65 nM.

Consider `Cc1cc(-c2cccc(C(F)(F)F)c2)c[n+]([O-])c1C(=O)N1CCC(N2CCCC2)CC1` [Example 2, [3-Methyl-1-oxy-5-(3-trifluoromethyl-phenyl)-pyridin-2-yl]-(4-pyrrolidin-1-yl-piperidin-1-yl)-methanone], for which the IC50 came out at 23 nM.

`Cc1cc(-c2cccc(C(F)(F)F)c2)cnc1C(=O)N1CCC(N2CCC[C@H]2CO)CC1` [Example 5, [4-((S)-2-Hydroxymethyl-pyrrolidin-1-yl)-piperidin-1-yl]-[3-methyl-5-(3-trifluoromethyl-phenyl)-pyridin-2-yl]-methanone]: the IC50 was found to be 21 nM.

For `Cc1cc(-c2ccc(F)c(C(F)(F)F)c2)cnc1C(=O)N1CCC(N2CCCC2)CC1` [Example 34, [5-(4-Fluoro-3-trifluoromethyl-phenyl)-3-methyl-pyridin-2-yl]-(4-pyrrolidin-1-yl-piperidin-1-yl)-methanone], the IC50 was 59 nM.

For `Cc1cc(-c2cccc(C(F)(F)F)c2)c(-c2cn[nH]c2)nc1C(=O)N1CCC(N2CCCC2)CC1` [Example 48, [3-Methyl-6-(1H-pyrazol-4-yl)-5-(3-trifluoromethyl-phenyl)-pyridin-2-yl]-(4-pyrrolidin-1-yl-piperidin-1-yl)-methanone], the IC50 came out at 12 nM.

The values are drawn from patent US8227613B2, “Heteroaryl carboxamide derivatives” (Hoffmann-La Roche Inc., priority 2008, dated 2012).
